Patent US20040029208A1, “Assay method and kit for testing biological material for exposure to stress using biomarkers” (priority 2000, published 2004)

Legend:
Assay type in all cases: in vivo
Anagallis arvensis = experiment: TLC plant biomarker pattern after herbicide spraying (greenhouse)
Protocol: The experiments were performed in the green-house at the National Environmental Research Institute, Silkeborg, Denmark. All the seeds needed light to germinate, and were sown at the soil surface in individual 11 cm pots. The soil used during the experiments contained: (SM Growing Mould (Growing medium by special soil (sphagnum) added clay granulate), 0-30 mm; grade of turnover 55-75; added per m^3: 3 kg lime (white chalk), 1.5 kg dolit chalk, 40 kg clay granulate; Fertilizer added granulate: NO3-N: 55.0 g; NH4-N: 65.0 g; P: 106.6 g; K: 224.0 g; Mg: 22 g; Micro nutrients added in chelate form, Mo in uorganic form: B-Boron: 1 g; Cu-copper: 6 g; Mn-Manganese: 3 g; Zinc-Zn: 3 g: Fe-iron: 6 g; Mo- molybdenum: 1.4 g).
During the experiments plants were watered from below, and the temperature in the green-house was maintained between 15° C. and 25° C. with variations due to external weather, and the photoperiod was 16th daylight. The green-house is divided into different units, which allowed for the separate maintenance of the control plants from the sprayed plants to avoid undesirable effects due to vapour drift.
Glyphosate (Roundup Bio (360 g L^−1) was supplied by Monsanto Denmark A/S. Recommended field dose=1,44 kg a.i. ha^−1. In all the experiments, an automatic sprayer (designed in Denmark by Jens Kristensen 1994) was used where the herbicide application is achieved by moving boom equipment with two ordinary hydraulic flat fan nozzles (Hardi 4110-16). Two pots per spray event were placed in the middle of the spray chamber at 50 cm distance from the nozzle, delivering 200 L of water per-hectare with a desired herbicide concentration (working pressure 2 bars; speed of spray boom=4.7 km h^−1). The spraying was performed starting with the lowest concentration first, progressing towards the highest concentration. Between each herbicide, the sprayer was thoroughly rinsed several times with water. The control plants were sprayed with water.
The fresh plant material was pressed using a hand press. The extract was immediately centrifuged. (3000 rpm) for 10 minutes. The supernatant was used for analysis. The extracts were kept cool or right above 0° C. during the test to avoid decomposition of biomarkers.
Freeze-dried plant material was crushed and 250 mg was extracted with 5.00 ml 75% ethanol in an ultrasonic bath for 2 hours. The temperature was kept <0° C. (using ice) during the extraction to avoid decomposition of biomarkers. The extract was centrifuged (3000 rpm) for 10 minutes. The supematant was used for analysis and were kept cool during the test to avoid decomposition of biomarkers.
The two extracts (freshtfresh ethanol) were applicated immediately on a TLC plate (10 μl on both TLC-Plate types (see below) using cool air-drying. The 75% ethanolic extract was applicated 10 μl on Silica-gel TLC-plates and 5 μl on Cellulose TLC-plates (see below). The fresh/fresh ethanolic extractsare recommended to perform if fresh plant material are to be analysed (field-test). The freeze-dried or frozen plant material extraction Is recommended if the analysis are performed in the laboratory.
[…] Derivatisation: Stock solution 1:50% sulfuric acid in 96% ethanol; Stock solution 2: 2% vanillin in absolut alcohol; Derivatisation-solvent, Fresh produced before us, stock solution 1 and stock solution 2 (1:10); Aftercare: 120° C. in 2-3 min. The plate is valuated visually. The system detects higher alcoholics, phenolic compounds, steroids and etheric oils (Stahl 1969), terpenoids, phenyl propanolds, phenolic compounds (Wagner etea. 1984)
TLC-System 7: HPTLC-Alufolie Silica Gel 60 F2u, Merck 1.05548 (10×10 cm); 10 μl plant extracts plants exposed to glyphosate and control plants; eluted in n-butanol: acetic acid: water (4:1:5) (upper phase after 5 minutes shaking). Derivatisation: 0,5 g p-anisaldehyde diluted in 10 ml conc. acetic acid and 85 ml absolute alcohol is and 5 ml conc. sulfuric acid (added in the following row). The plate is heated to. […]

Rudbeckia hirta = experiment: Visual effect rating (0-9) after Roundup Bio
Protocol: (§1) Four, eight, sixteen and thirty two days after spraying, visual effects on plants were noted before harvest, using the rating chart described in Hamil. et al. (1977) and Boutin et al. (1993); a rating of zero indicates full growth and vigour, and a rating of nine indicates no growth/mortality.
(§2) The study was performed in greenhouse between August and December 1998 for all species. Degree days (=(Present temperature in ° C.-5° C.)×amount of days) were used as time scale. The plants were 226-378 degree days (30 days) old before exposure. The plants were exposed to 0, 1. 10 and 100% of the recommended field dose of Roundup Bio. Before the harvest, the plants were evaluated for visual effects using the rating chart described in Table 1 (Hamit et al., 1977). A rating of zero indicates full growth and vigour (compared with control plants) and a rating of nine, no growth/mortality. The plants were all harvested 180 degree days (14 days) after exposure. The plants were lyophilizied and k pt dry and in dark before phytochemical analysis.
(§3) Table 2: Sensitivity of plants exposed to glyphosate (Roundup Bio), based on presence of phytochemical changes in all the TLC-Systems at lowest dose of concentration (LC) of the herbicide in percent of field dose. The corresponding visual effect (VE) Is presented (see table 1).

Papaver rhoeas = experiment: Visual effect rating (0-9) after Roundup Bio
Protocol: as §1, §2, §3

Sinapis avensis = experiment: Visual effect rating (0-9) after Roundup Bio
Protocol: as §1, §2, §3

Nepeta cataria = experiment: Visual effect rating (0-9) after Roundup Bio
Protocol: as §1, §2, §3

Mentha spicata = experiment: Visual effect rating (0-9) after Roundup Bio
Protocol: as §1, §2, §3

Leonorus carica = experiment: Visual effect rating (0-9) after Roundup Bio
Protocol: as §1, §2, §3

Bellis perennis = experiment: Visual effect rating (0-9) after Roundup Bio
Protocol: as §1, §2, §3

Compound: O=C(O)CNCP(=O)(O)O [Glyphosate]
- LC: lowest dose of concentration of the herbicide with phytochemical changes in all the TLC-Systems (Anagallis arvensis; Roundup Bio, Anagallis arvensis): 1% of field dose
- Min. of label dose of herbicide with effect (Anagallis arvensis; TLC 1 (non-specific compounds)): 1%
- Min. of label dose of herbicide with effect (Anagallis arvensis; TLC 6 (lipids and terpens)): 1%
- Min. of label dose of herbicide with effect (Anagallis arvensis; TLC 4d (amino acids)): 1%
- VE: corresponding visual effect (Rudbeckia hirta): 1
- VE: corresponding visual effect (Papaver rhoeas): 4
- VE: corresponding visual effect (Sinapis avensis): 7
- VE: corresponding visual effect (Nepeta cataria): 7
- VE: corresponding visual effect (Mentha spicata): 6
- VE: corresponding visual effect (Leonorus carica): 5
- VE: corresponding visual effect (Bellis perennis): 7
